Reference: the NIST ThermoML archive (doi:10.1021/je800110r)
± gives the expanded uncertainty stated by the source.

Details: 333.15 K, Liquid, Vibrating tube method

CCCCCCCCCC [decane]
Details	mass density [kg/m3]
10425 kPa	708.9 ± 2
10455 kPa	709 ± 2
10482 kPa	709 ± 2
10506 kPa	709.1 ± 2
10526 kPa	709 ± 2
10553 kPa	709.1 ± 2
10580 kPa	709 ± 2
10603 kPa	709.1 ± 2
10630 kPa	709.2 ± 2
10657 kPa	709 ± 2
10677 kPa	709.3 ± 2
10704 kPa	709.2 ± 2
10743 kPa	709.3 ± 2
10772 kPa	709.2 ± 2
10799 kPa	709.4 ± 2
10828 kPa	709.3 ± 2
10856 kPa	709.3 ± 2
10884 kPa	709.3 ± 2
10917 kPa	709.4 ± 2
10950 kPa	709.4 ± 2
10976 kPa	709.4 ± 2
11009 kPa	709.5 ± 2
11035 kPa	709.6 ± 2
11073 kPa	709.6 ± 2
11102 kPa	709.7 ± 2
11132 kPa	709.6 ± 2
11162 kPa	709.7 ± 2
11188 kPa	709.5 ± 2
11219 kPa	709.7 ± 2
11250 kPa	709.7 ± 2
11277 kPa	709.8 ± 2
11304 kPa	709.8 ± 2
11330 kPa	709.7 ± 2
11357 kPa	709.7 ± 2
11398 kPa	709.8 ± 2
11428 kPa	709.8 ± 2
11460 kPa	709.8 ± 2
11492 kPa	709.9 ± 2
11533 kPa	709.9 ± 2
11566 kPa	710 ± 2
11596 kPa	710 ± 2
11635 kPa	710 ± 2
11662 kPa	710 ± 2
11697 kPa	710.1 ± 2
11733 kPa	710.1 ± 2
11760 kPa	710.1 ± 2
11796 kPa	710.2 ± 2
11827 kPa	710.2 ± 2
11859 kPa	710.2 ± 2
11895 kPa	710.2 ± 2
11932 kPa	710.4 ± 2
11974 kPa	710.4 ± 2
11998 kPa	710.3 ± 2
12044 kPa	710.4 ± 2
12087 kPa	710.5 ± 2
12115 kPa	710.6 ± 2
12144 kPa	710.4 ± 2
12187 kPa	710.4 ± 2
12857 kPa	711 ± 2
12881 kPa	711.2 ± 2
12919 kPa	711.2 ± 2
12952 kPa	711.1 ± 2
12983 kPa	711.3 ± 2
13020 kPa	711.3 ± 2
13053 kPa	711.2 ± 2
13085 kPa	711.3 ± 2
13153 kPa	711.4 ± 2
13172 kPa	711.5 ± 2
13195 kPa	711.4 ± 2
13213 kPa	711.4 ± 2
13239 kPa	711.4 ± 2
13261 kPa	711.4 ± 2
13279 kPa	711.4 ± 2
13300 kPa	711.5 ± 2
13315 kPa	711.4 ± 2
13337 kPa	711.4 ± 2
13353 kPa	711.6 ± 2
13598 kPa	711.7 ± 2
13618 kPa	711.8 ± 2
13633 kPa	711.7 ± 2
13652 kPa	711.8 ± 2
13667 kPa	711.7 ± 2
13682 kPa	711.8 ± 2
13695 kPa	711.7 ± 2
13715 kPa	711.7 ± 2
13728 kPa	711.9 ± 2
13740 kPa	711.9 ± 2
13756 kPa	711.8 ± 2
13775 kPa	711.9 ± 2
13790 kPa	711.9 ± 2
13804 kPa	712 ± 2
13817 kPa	711.9 ± 2
13834 kPa	712 ± 2
13854 kPa	712 ± 2
13867 kPa	711.9 ± 2
13887 kPa	712 ± 2
13913 kPa	712.1 ± 2
13929 kPa	712.1 ± 2
13951 kPa	712 ± 2
13965 kPa	712.1 ± 2
13981 kPa	712.1 ± 2
13994 kPa	712 ± 2
14010 kPa	712.1 ± 2
14027 kPa	712.1 ± 2
14048 kPa	712.3 ± 2
14066 kPa	712.2 ± 2
14089 kPa	712.2 ± 2
14106 kPa	712.1 ± 2
14128 kPa	712.2 ± 2
14140 kPa	712.1 ± 2
14154 kPa	712.2 ± 2
14172 kPa	712.3 ± 2
14186 kPa	712.3 ± 2
14205 kPa	712.3 ± 2
14217 kPa	712.3 ± 2
14240 kPa	712.4 ± 2
14902 kPa	712.8 ± 2
14923 kPa	712.9 ± 2
14943 kPa	713 ± 2
14961 kPa	713.1 ± 2
15005 kPa	712.9 ± 2
15028 kPa	713 ± 2
15046 kPa	712.9 ± 2
15070 kPa	713 ± 2
15086 kPa	713 ± 2
15104 kPa	712.9 ± 2
15126 kPa	713 ± 2
15147 kPa	713 ± 2
15166 kPa	713 ± 2
15205 kPa	713.2 ± 2
15267 kPa	713.2 ± 2
15394 kPa	713.3 ± 2
15411 kPa	713.3 ± 2
15435 kPa	713.4 ± 2
15452 kPa	713.4 ± 2
15479 kPa	713.3 ± 2
15499 kPa	713.4 ± 2
15536 kPa	713.4 ± 2
15558 kPa	713.4 ± 2
15603 kPa	713.4 ± 2
15623 kPa	713.5 ± 2
15641 kPa	713.5 ± 2
15666 kPa	713.6 ± 2
15680 kPa	713.5 ± 2
15703 kPa	713.5 ± 2
15721 kPa	713.6 ± 2
15741 kPa	713.6 ± 2
15761 kPa	713.5 ± 2
15784 kPa	713.6 ± 2
15804 kPa	713.6 ± 2
15827 kPa	713.6 ± 2
15859 kPa	713.6 ± 2
15877 kPa	713.7 ± 2
15898 kPa	713.6 ± 2
15919 kPa	713.8 ± 2
15945 kPa	713.8 ± 2
15972 kPa	713.7 ± 2
15992 kPa	713.8 ± 2
16013 kPa	713.7 ± 2
16043 kPa	713.8 ± 2
16061 kPa	713.9 ± 2
16084 kPa	713.9 ± 2
16108 kPa	713.9 ± 2
16129 kPa	713.9 ± 2
16147 kPa	713.9 ± 2
16163 kPa	714.1 ± 2
16188 kPa	714 ± 2
16212 kPa	713.9 ± 2
16236 kPa	714 ± 2
16258 kPa	714.1 ± 2
16288 kPa	714.1 ± 2
16313 kPa	714 ± 2
16336 kPa	714 ± 2
16354 kPa	714 ± 2
16383 kPa	714.1 ± 2
16417 kPa	714 ± 2
16436 kPa	714.1 ± 2
16455 kPa	714.1 ± 2
16484 kPa	714.1 ± 2
16506 kPa	714.2 ± 2
16535 kPa	714.2 ± 2
16557 kPa	714.2 ± 2
16580 kPa	714.2 ± 2
16599 kPa	714.4 ± 2
16628 kPa	714.2 ± 2
16648 kPa	714.2 ± 2
16681 kPa	714.3 ± 2
16700 kPa	714.4 ± 2
16719 kPa	714.3 ± 2
16749 kPa	714.4 ± 2
16769 kPa	714.4 ± 2
16806 kPa	714.4 ± 2
16832 kPa	714.3 ± 2
16858 kPa	714.5 ± 2
16882 kPa	714.4 ± 2
16913 kPa	714.4 ± 2
16933 kPa	714.6 ± 2
16963 kPa	714.6 ± 2
16983 kPa	714.5 ± 2
17007 kPa	714.6 ± 2
17030 kPa	714.6 ± 2
17054 kPa	714.6 ± 2
17071 kPa	714.7 ± 2
17105 kPa	714.6 ± 2
17136 kPa	714.7 ± 2
17168 kPa	714.7 ± 2
17193 kPa	714.8 ± 2
17217 kPa	714.8 ± 2
17252 kPa	714.9 ± 2
17276 kPa	714.8 ± 2
17301 kPa	714.8 ± 2
17329 kPa	714.9 ± 2
17357 kPa	714.8 ± 2
17382 kPa	714.9 ± 2
17407 kPa	715 ± 2
17429 kPa	714.9 ± 2
17458 kPa	715 ± 2
17484 kPa	715 ± 2
17509 kPa	714.9 ± 2
17542 kPa	715.1 ± 2
17564 kPa	715 ± 2
17593 kPa	715.1 ± 2
17626 kPa	715.1 ± 2
17656 kPa	715.1 ± 2
17689 kPa	715.2 ± 2
17708 kPa	715.2 ± 2
17727 kPa	715.2 ± 2
17754 kPa	715.3 ± 2
17777 kPa	715.2 ± 2
17799 kPa	715.3 ± 2
17827 kPa	715.3 ± 2
17857 kPa	715.2 ± 2
17891 kPa	715.4 ± 2
17925 kPa	715.4 ± 2
17948 kPa	715.3 ± 2
17975 kPa	715.4 ± 2
18002 kPa	715.5 ± 2
18025 kPa	715.4 ± 2
18053 kPa	715.5 ± 2
18089 kPa	715.5 ± 2
18117 kPa	715.5 ± 2
18145 kPa	715.5 ± 2
18164 kPa	715.6 ± 2
18188 kPa	715.6 ± 2
18223 kPa	715.6 ± 2
18263 kPa	715.6 ± 2
18286 kPa	715.6 ± 2
18322 kPa	715.8 ± 2
18354 kPa	715.7 ± 2
18382 kPa	715.7 ± 2
18419 kPa	715.7 ± 2
18443 kPa	715.8 ± 2
18476 kPa	715.8 ± 2
18500 kPa	715.7 ± 2
18540 kPa	715.9 ± 2
18566 kPa	716 ± 2
18594 kPa	716 ± 2
18623 kPa	716 ± 2
18664 kPa	716 ± 2
18744 kPa	716 ± 2
18765 kPa	716 ± 2
18791 kPa	716.1 ± 2
18859 kPa	716.1 ± 2
18889 kPa	716.1 ± 2
18927 kPa	716.2 ± 2
18953 kPa	716.2 ± 2
18982 kPa	716.3 ± 2
19017 kPa	716.2 ± 2
19048 kPa	716.3 ± 2
19083 kPa	716.3 ± 2
19113 kPa	716.3 ± 2
19140 kPa	716.3 ± 2
19180 kPa	716.3 ± 2
19216 kPa	716.4 ± 2
